Test system: FD-MSCs
Experiment: UCP1 expression time course of FD-MSCs during adipogenic differentiation
Type: cell-based, human
Protocol: All assays were performed between 7 and 15 passages. For osteocyte differentiation, mature MSCs were grown in 24 well culture plates to 100% confluency in MesenCult-ACF and induced to differentiate in OsteoLife Complete Osteogenesis Medium (Lifeline Cell Technology) for 21 days prior to staining with Lifeline Alizarin Red Stain to visualize calcium deposition. For chondrocyte differentiation. For beige adipogenic precursor generation, cells were grown in 24 well culture plates to 90% confluence and treated with 5 uM SB413542 (Sigma) and 10 nM human IL-4 (Peprotech) for 2 days. For beige adipogenic induction, adipogenic precursors are differentiated for 3 days with adipogenic medium consisting of T3 (2 nM), insulin (170 nM), rosiglitazone (1 μM), SB413542 (5 uM), IBMX (0.5 mM), dexamethasone (5 μM) and indomethacin (125 μM) in EGM-2 medium (Lonza) supplemented with the BulletKit minus FGF2 (modified from^33). Thereafter, cells are maintained in adipogenic medium without IBMX, dexamethasone and indomethacin. The medium was changed every 3 days and adipocytes were fully differentiated by 9-12 days as determined by lipid accumulation and peak expression of UCP1. Cell Isolation, Expansion and Differentiation of Interscapular Brown Adipose Tissue Preadipocytes • 1. Prior to adipose cell isolation, warm DMEM, FBS and cell wash buffer to room temperature. • 2. […]

SMILES: NC(=O)c1ccc(-c2nc(-c3ccc4c(c3)OCO4)c(-c3ccccn3)[nH]2)cc1 [SB, SB431542]
- shift of the peak of UCP1 expression (earlier) (additional SB pretreatment prior to adipogenic differentiation): 3 days
- UCP1 gene expression (qPCR) (differentiated in the presence of SB): large increase

— US12312599B2, “Methods, compositions, and kits for producing beige adipocytes and treating metabolic disorders” (MaineHealth, priority 2018, dated 2025)
